Test results published in PubChem BioAssay (NCI).
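The compound was tested at five concentrations on cells cultured in 96-well plates, with a 48-hour exposure period. Definition used: TGI = concentration required for complete inhibition of growth.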

Tests used:
Assay in all cases: NCI-60 cell line screen, 48 h
[1] = test system: SF-268 CNS
[2] = test system: SK-MEL-28 melanoma
[3] = test system: MOLT-4 leukemia
[4] = test system: HCT-116 colon
[5] = test system: DU-145 prostate
[6] = test system: UACC-257 melanoma
[7] = test system: UO-31 renal
[8] = test system: CCRF-CEM leukemia
[9] = test system: SN12C renal
[10] = test system: NCI/ADR-RES ovarian
[11] = test system: MCF7 breast
[12] = test system: SNB-19 CNS
[13] = test system: SF-539 CNS
[14] = test system: OVCAR-3 ovarian
[15] = test system: K-562 leukemia
[16] = test system: SK-OV-3 ovarian
[17] = test system: SF-295 CNS
[18] = test system: NCI-H23 lung
[19] = test system: MALME-3M melanoma
[20] = test system: SNB-75 CNS
[21] = test system: NCI-H226 lung
[22] = test system: OVCAR-8 ovarian
[23] = test system: OVCAR-5 ovarian
[24] = test system: SW-620 colon
[25] = test system: NCI-H460 lung
[26] = test system: COLO 205 colon
[27] = test system: HOP-62 NSCLC
[28] = test system: MDA-N
[29] = test system: U251 CNS
[30] = test system: HOP-92 NSCLC
[31] = test system: 786-0 renal
[32] = test system: CAKI-1 renal
[33] = test system: MDA-MB-231 breast
[34] = test system: BT-549 breast
[35] = test system: OVCAR-4 ovarian
[36] = test system: HCT-15 colon
[37] = test system: EKVX NSCLC
[38] = test system: HCC-2998 colon
[39] = test system: A549 NSCLC
[40] = test system: M14 melanoma
[41] = test system: A498 renal
[42] = test system: UACC-62 melanoma
[43] = test system: KM12 colon
[44] = test system: NCI-H522 lung
[45] = test system: PC-3 prostate
[46] = test system: HS 578T breast
[47] = test system: IGROV1 ovarian
[48] = test system: SK-MEL-5 melanoma
[49] = test system: MDA-MB-435
[50] = test system: HT29 colon
[51] = test system: T-47D breast
[52] = test system: SK-MEL-2 melanoma
[53] = test system: TK-10 renal
[54] = test system: SR leukemia
[55] = test system: ACHN renal
[56] = test system: RPMI-8226 leukemia
[57] = test system: LOX IMVI melanoma
[58] = test system: HL-60(TB) leukemia
[59] = test system: RXF 393 renal

In the case of `CC(C)CCNC(=O)C(CC(C)C)NC(=O)[C@H]1O[C@@H]1C(=O)O` (some centres undefined), the TGI [1] is reported as > 100 µM, the TGI [2] is reported as > 100 µM and the TGI [3] is reported as > 100 µM. The TGI [4] was > 100 µM, the TGI [5] was > 100 µM and the TGI [6] was > 100 µM. The TGI [7] was > 100 µM, the TGI [8] was > 100 µM and the TGI [9] was > 100 µM. The TGI [10] was > 100 µM, the TGI [11] was > 100 µM and the TGI [12] was > 100 µM. The TGI [13] was > 100 µM, the TGI [14] was > 100 µM and the TGI [15] was > 100 µM. For the same compound, the TGI [16] was > 100 µM, the TGI [17] was > 100 µM and the TGI [18] was > 100 µM. For the same compound, the TGI [19] was > 100 µM, the TGI [20] was > 100 µM and the TGI [21] was > 100 µM. For the same compound, the TGI [22] was > 100 µM, the TGI [23] was > 100 µM and the TGI [24] was > 100 µM. For the same compound, the TGI [25] was > 100 µM, the TGI [26] was > 100 µM and the TGI [27] was > 100 µM. The TGI [28] was > 100 µM, the TGI [29] was > 100 µM and the TGI [30] was > 100 µM. The TGI [31] was > 100 µM, the TGI [32] was > 100 µM and the TGI [33] was > 100 µM. The TGI [34] was > 100 µM, the TGI [35] was > 100 µM and the TGI [36] was > 100 µM. For the same compound, the TGI [37] was > 100 µM, the TGI [38] was > 100 µM and the TGI [39] was > 100 µM. The TGI [40] was > 100 µM, the TGI [41] was > 100 µM and the TGI [42] was > 100 µM. The TGI [43] was > 100 µM, the TGI [44] was > 100 µM and the TGI [45] was > 100 µM. The TGI [46] was > 100 µM, the TGI [47] was > 100 µM and the TGI [48] was > 100 µM. For the same compound, the TGI [49] was > 100 µM, the TGI [50] was > 100 µM and the TGI [51] was > 100 µM.

For `COc1ccc2c3c1OC1C(OC)(OC)C=C[C@@]4(Br)[C@@H](C2)N(CC2CC2)CC[C@]314` (some centres undefined), the TGI [1] was > 100 µM, the TGI [2] was > 100 µM and the TGI [3] was > 100 µM. The TGI [4] was > 100 µM, the TGI [5] was > 100 µM and the TGI [6] was > 100 µM. The TGI [7] was > 100 µM, the TGI [8] was > 100 µM and the TGI [9] was > 100 µM. For the same compound, the TGI [10] was > 100 µM, the TGI [11] was > 100 µM and the TGI [12] was > 100 µM. The TGI [13] was > 100 µM, the TGI [14] was > 100 µM and the TGI [52] was > 100 µM. For the same compound, the TGI [15] was > 100 µM, the TGI [16] was > 100 µM and the TGI [53] was > 100 µM. For the same compound, the TGI [17] was > 100 µM, the TGI [18] was > 100 µM and the TGI [19] was > 100 µM. For the same compound, the TGI [20] was > 100 µM, the TGI [21] was > 100 µM and the TGI [22] was > 100 µM. The TGI [54] was > 100 µM, the TGI [23] was > 100 µM and the TGI [55] was > 100 µM. The TGI [24] was > 100 µM, the TGI [56] was > 100 µM and the TGI [25] was > 100 µM. The TGI [26] was 94.1 µM, the TGI [27] was > 100 µM and the TGI [28] was > 100 µM. For the same compound, the TGI [29] was > 100 µM, the TGI [30] was 83.9 µM and the TGI [31] was > 100 µM. For the same compound, the TGI [57] was > 100 µM, the TGI [32] was > 100 µM and the TGI [33] was > 100 µM. The TGI [35] was > 100 µM, the TGI [36] was > 100 µM and the TGI [37] was > 100 µM. For the same compound, the TGI [38] was > 100 µM, the TGI [39] was > 100 µM and the TGI [40] was > 100 µM. For the same compound, the TGI [41] was > 100 µM, the TGI [42] was > 100 µM and the TGI [43] was > 100 µM. For the same compound, the TGI [44] was 47.8 µM, the TGI [45] was > 100 µM and the TGI [46] was > 100 µM. For the same compound, the TGI [47] was > 100 µM, the TGI [48] was > 100 µM and the TGI [58] was > 100 µM. For the same compound, the TGI [49] was > 100 µM, the TGI [59] was > 100 µM and the TGI [50] was > 100 µM. The TGI [51] was > 100 µM.

With `CCCCCCCCCCCCCCCCCCNc1ccn(C2OC(CO)C(OP(=O)(O)OCC(O)COP(=O)(O)OCC3OC(n4cc(F)c(NCCCCCCCCCCCCCCCCCC)nc4=O)CC3O)C2O)c(=O)n1` (centres undefined) the TGI [1] was > 50 µM, the TGI [2] was > 50 µM and the TGI [4] was > 50 µM. For the same compound, the TGI [5] was > 50 µM, the TGI [6] was > 50 µM and the TGI [7] was > 50 µM. The TGI [9] was > 50 µM, the TGI [10] was > 50 µM and the TGI [11] was > 50 µM. For the same compound, the TGI [12] was > 50 µM, the TGI [13] was > 50 µM and the TGI [14] was > 50 µM. For the same compound, the TGI [52] was > 50 µM, the TGI [15] was > 50 µM and the TGI [16] was > 50 µM. The TGI [53] was > 50 µM, the TGI [17] was > 50 µM and the TGI [18] was > 50 µM. The TGI [19] was > 50 µM, the TGI [20] was > 50 µM and the TGI [21] was > 50 µM. The TGI [22] was > 50 µM, the TGI [23] was > 50 µM and the TGI [55] was > 50 µM. For the same compound, the TGI [24] was > 50 µM, the TGI [56] was > 50 µM and the TGI [25] was > 50 µM. The TGI [26] was > 50 µM, the TGI [27] was > 50 µM and the TGI [28] was > 50 µM. The TGI [29] was > 50 µM, the TGI [30] was > 50 µM and the TGI [31] was > 50 µM. For the same compound, the TGI [57] was > 50 µM, the TGI [32] was > 50 µM and the TGI [33] was > 50 µM. The TGI [34] was > 50 µM, the TGI [35] was > 50 µM and the TGI [36] was > 50 µM. For the same compound, the TGI [37] was > 50 µM, the TGI [38] was > 50 µM and the TGI [39] was > 50 µM. The TGI [40] was > 50 µM, the TGI [41] was > 50 µM and the TGI [42] was > 50 µM. For the same compound, the TGI [43] was > 50 µM, the TGI [44] was > 50 µM and the TGI [45] was > 50 µM. The TGI [46] was > 50 µM, the TGI [47] was > 50 µM and the TGI [48] was > 50 µM. The TGI [58] was > 50 µM, the TGI [49] was > 50 µM and the TGI [50] was > 50 µM. The TGI [51] was > 50 µM.
